Test results: patent US9552457B2, “Reprogramming effector protein interactions to correct epigenetic defects in cancer” (BRITISH COLUMBIA CANCER AGENCY BRANCH, priority 2012, dated 2017)
Where two headings read alike, the source gives them in different places.

What was measured:
[1] = tested on: SU-DHL-9 (MLL2 homozygous indel mutant) cell line; assay: alamarBlue cell proliferation assay, SU-DHL-9 cell line; assay type: cell-based, human; conditions: for activity at 10 µM: Homo sapiens, read-out: % Cell Proliferation; for activity as worded in SAR analysis (selective toxicity against SU-DHL-9): in words, restates Tables 3 and 4
Method: Cell line DOHH2 was obtained from DSMZ. Pfeiffer was obtained from ATCC. SU-DHL-9 was obtained from Martin Dyer (University of Leicester, UK).
Compounds were initially solubilized in DMSO at a concentration of 10 mM. […] Ninety microliters of cells maintained at a concentration of 4×10^5 cells/mL were dispensed into wells of a MICROTEST™ 96-well Assay Plate, Optilux™ (BD). Ten microliters of the 100 μM compound solution were then added to the cells resulting in a final compound concentration of 10 μM. Each compound was tested in triplicate. […] Compounds were incubated with the cells in a 37° C. incubator with 5% CO2, humidified atmosphere for 48 hours before being subjected to the alamarBlue® cell proliferation assay (Life Technologies). Raw fluorescent units were corrected for background noise and normalized to the carrier-treated control.

[2] = tested on: DoHH2 Cells (wildtype for EZH2, MEF2B and MLL2); assay: Cell viability of lymphoma cell lines, DoHH-2; assay type: cell-based; set-up: Effect on Cell Viability (% survival) DoHH2 Cells: concentration or dose not given beside the values; conditions: Table 5
Method: (§1) Compound 50 was tested for its effect on the viability of three lymphoma cell lines in vitro using standard methods. The cell lines tested were: DoHH-2 (wildtype for EZH2, MEF2B and MLL2); WSU-DLCL2 (EZH2 mutation Y641F (wildtype for MEF2B and MLL2)) and DB (EZH2 mutation Y641N, the MEF2B mutation D83V and three mutations in MLL2 (two of which lead to a truncated protein after residue Q2736 and the third allele has a 1 base pair deletion at residue P480)).
(§2) Compound 51 (NSC2540) was tested for its effect on the viability of four lymphoma cell lines in vitro using standard methods. The cell lines tested were DoHH-2, WSU-DLCL2, DB and SU-DHL-9 (EZH2 wildtype, MEF2B wildtype, MLL2 indel).

[3] = tested on: WSU-DLCL2 Cells (EZH2 mutation Y641F); assay: Cell viability of lymphoma cell lines, WSU-DLCL2; assay type: cell-based, human; set-up: Effect on Cell Viability (% survival) WSU-DLCL2 Cells: concentration or dose not given beside the values; conditions: Table 5
Method: as §1, §2

[4] = tested on: DoHH-2, OCI-LY3, WSU-DLCL2 (all wild-type for MLL2); assay: alamarBlue cell proliferation assay, MLL2 wild-type cell lines; assay type: cell-based; conditions: in words
Method: Diffuse large B-cell lymphoma cell lines were maintained in RPMI medium 1640 (Life Technologies) supplemented with 10% (v/v) fetal bovine serum (Life Technologies) and 1% penicillin/streptomycin (Life Technologies) in a 37° C. incubator with 5% CO2, humidified atmosphere. Cell line DOHH2 was obtained from DSMZ. Pfeiffer was obtained from ATCC. SU-DHL-9 was obtained from Martin Dyer (University of Leicester, UK).
Compounds were initially solubilized in DMSO at a concentration of 10 mM. This compound solution was further diluted 1:100 in RPMI medium 1640 to a final concentration of 100 μM. Ninety microliters of cells maintained at a concentration of 4×10^5 cells/mL were dispensed into wells of a MICROTEST™ 96-well Assay Plate, Optilux™ (BD). Ten microliters of the 100 μM compound solution were then added to the cells resulting in a final compound concentration of 10 μM. Each compound was tested in triplicate. Ten microliters of a 1:100 DMSO to RPMI medium 1640 solution were also added to 90 μL of cells as a carrier control. Furthermore, each plate included wells containing only RPMI medium 1640 to serve as a background noise control as well as cells that were completely untreated. Compounds were incubated with the cells in a 37° C. incubator with 5% CO2, humidified atmosphere for 48 hours before being subjected to the alamarBlue® cell proliferation assay (Life Technologies). Raw fluorescent units were corrected for background noise and normalized to the carrier-treated control.
The activity of Compound 3 in vitro was investigated further using the cell lines DoHH-2, OCI-LY3, WSU-DLCL2 (all wild-type for MLL2) and SU-DHL9. In addition, the dose response for Compound 2 was investigated in cell lines mutant for MLL2 or both MLL2 and EZH2. The dose response for Compound 3 was investigated in a MLL2 mutant cell line. Methods were as described for Example 3. Cell-line WSU-DLCL2 was obtained from DSMZ and OCI-Ly lines 3 was obtained from Louis Staudt (US National Institutes of Health).

[5] = Table 3, scaffold A, 10 μM, 48 hours, normalized to carrier-treated control, SU-DHL-9
[6] = Table 4, scaffold B, 10 μM, 48 hours, normalized to carrier-treated control, SU-DHL-9

SMILES	Effect on Cell Viability (% survival) DoHH2 Cells [2] [%]	Effect on Cell Viability (% survival) WSU-DLCL2 Cells [3] [%]	also measured
C=C(CN(C)C)C(=O)c1ccc(OC)cc1 [Compound 20]			activity at 10 µM [1, 5]: 83%
C=C(CN(C)C)C(=O)c1ccc(C)cc1C [Compound 15]			activity at 10 µM [1, 5]: 61%
O=C1c2ccccc2-c2cccc(NC(=O)C(Cl)Cl)c21 [Compound 22]			activity at 10 µM [1, 6]: 86%; activity as worded in SAR analysis (selective toxicity against SU-DHL-9) [1]: partially active
OC(c1cc(-c2ccc(Cl)cc2)nc2ccccc12)C1CCCCN1 (stereo not drawn) [Compound 40]	100	50	
OC(CBr)c1cc(-c2ccccc2)nc2ccccc12 (stereo not drawn) [Compound 25]	100	60	
O=C1c2ccccc2-c2c(NC(=O)C(Cl)Cl)cccc21 [Compound 9, 2,2-dichloro-N-(9-oxofluoren-4-yl)acetamide]			activity at 10 µM [1, 6]: 117%
C=CC(=O)c1ccccc1 [Compound 13]			activity at 10 µM [1, 5]: 137%
CC(O)c1cc(-c2ccccc2)nc2ccccc12 (stereo not drawn) [Compound 26]	100	90	
OC(c1cc(-c2ccc(Cl)cc2Cl)nc2cc(Cl)ccc12)C1CCCCN1 (stereo not drawn) [Compound 39]	60	20	
CCCN(CCC)CC(O)c1cc(-c2ccc(Cl)cc2)nc2c(C)c(Cl)ccc12 (stereo not drawn) [Compound 46]	100	90	
CC(O)c1cc(-c2ccc(Cl)cc2)nc2ccccc12 (stereo not drawn) [Compound 29]	100	80	
COc1ccccc1C(=O)C(=O)CN(C)C [Compound 17]			activity at 10 µM [1, 5]: 89%; activity as worded in SAR analysis (selective toxicity against SU-DHL-9) [1]: inactive or minimally active
C=C(CN(C)C)C(=O)c1ccccc1C [Compound 16]			activity at 10 µM [1, 5]: 107%; activity as worded in SAR analysis (selective toxicity against SU-DHL-9) [1]: inactive or minimally active
C=CS(=O)(=O)c1ccc2ccccc2c1 [Compound 6, 2-ethenylsulfonylnaphthalene]			activity at 10 µM [1, 5]: 69%; activity as worded in SAR analysis (selective toxicity against SU-DHL-9) [1]: only moderate activity
O=C(CBr)c1cc(-c2ccc(Cl)cc2)nc2c(-c3ccccc3)cccc12 [Compound 35]	20	17	
Cc1c(Cl)ccc2c(C(=O)NN)cc(-c3ccc(Cl)cc3)nc12 [Compound 48]	90	40	
CC(=O)Nc1cccc2c1C(=O)c1ccccc1C2=O [Compound 24]			activity at 10 µM [1, 6]: 107%; activity as worded in SAR analysis (selective toxicity against SU-DHL-9) [1]: inactive
C=C(CN(C)C)C(=O)c1cc(C)ccc1C [Compound 1, 2-dimethylaminomethyl-1-(2,5-dimethyl-phenyl)-propenone]			activity at 10 µM [1, 5]: < 10%; activity against the MLL2 double LoF mutant cell line ([1]; SU-DHL-9, in words): active; activity as worded in SAR analysis (selective toxicity against SU-DHL-9) [1]: active; activity against wild-type cells [4]: inactive
CCN(CC)CC(O)c1cc(-c2ccc(Cl)cc2)nc2cc(Cl)ccc12 (stereo not drawn) [Compound 45]	100	80	
O=C(c1cc(-c2ccc(Cl)c(Cl)c2)nc2c(Cl)cc(Cl)cc12)C1NN1 [Compound 33]	100	100	
C=C(CN1CCOCC1)C(=O)c1ccccc1 [Compound 11, 2-(morpholin-4-ylmethyl)-1-phenylprop-2-en-1-one]			activity at 10 µM [1, 5]: 26%

SMILES	Effect on Cell Viability (% survival) DoHH2 Cells [2] [%]	Effect on Cell Viability (% survival) WSU-DLCL2 Cells [3] [%]	also measured
OC(c1cc(-c2ccccc2)nc2c1ccc1ccccc12)C1CCCCN1 (stereo not drawn) [Compound 44]	10	10	
O=C(CBr)c1cc(-c2ccc(Cl)cc2)nc2ccccc12 [Compound 27]	90	40	
C=C(CN(C)C)C(=O)c1ccccc1 [Compound 19]			activity at 10 µM [1, 5]: 77%; activity as worded in SAR analysis (selective toxicity against SU-DHL-9) [1]: inactive or minimally active
C=C(CNC(C)(C)C)C(=O)c1ccccc1 [Compound 8, 2-[(tert-butylamino)methyl]-1-phenylprop-2-en-1-one]			activity at 10 µM [1, 5]: 92%
Cc1c(Cl)ccc2c(C(=O)CNCc3ccccc3)cc(-c3ccc(Cl)cc3)nc12 [Compound 49]	70	50	
CC(=O)NC(CC(=O)Nc1cccc2c1C(=O)c1ccccc1-2)C(C)=O (stereo not drawn) [Compound 23]			activity at 10 µM [1, 6]: 114%; activity as worded in SAR analysis (selective toxicity against SU-DHL-9) [1]: inactive
O=C(Cl)c1cc(-c2ccc(Cl)cc2)nc2c(-c3ccccc3)cccc12 [Compound 37]	100	80	
OC(CBr)c1cc(-c2ccc(Cl)cc2)nc2c(-c3ccccc3)cccc12 (stereo not drawn) [Compound 36]	100	90	
OC(c1cc(-c2ccccc2)nc2c(Cl)cc(Cl)cc12)C1CCCCN1 (stereo not drawn) [Compound 42]	30	10	
OC(c1cc(-c2ccc(Cl)cc2)nc2cc(Cl)ccc12)N1CCCCC1 (stereo not drawn) [Compound 38]	100	80	
OC(CBr)c1cc(-c2ccc(Cl)cc2)nc2cc(Cl)ccc12 (stereo not drawn) [Compound 31]	100	100	
CC(=O)c1cc(-c2ccc(Cl)c(Cl)c2)nc2c(Cl)cc(Cl)cc12 [Compound 32]	100	90	
OC(c1cc(-c2ccccc2)nc2cc(Cl)ccc12)C1CCCCN1 (stereo not drawn) [Compound 43]	40	10	
CC(=O)c1cc(-c2ccc(Cl)cc2)nc2ccccc12 [Compound 28]	100	100	
C=CCCC(=C)c1ccccc1 [Compound 21]			activity at 10 µM [1, 5]: 105%
C=C(CN(C)C)C(=O)c1ccc(C(=O)C(=C)CN(C)C)cc1 [Compound 14]			activity at 10 µM [1, 5]: 93%; activity as worded in SAR analysis (selective toxicity against SU-DHL-9) [1]: lacks activity
OC(CBr)c1cc(-c2ccccc2)nc2c(Cl)cc(Cl)cc12 (stereo not drawn) [Compound 34]	100	90	
OC(c1cc(-c2cccc(Cl)c2)nc2ccccc12)C1CCCCN1 (stereo not drawn) [Compound 41]	17	10	
Cc1c(Cl)ccc2c(C(O)CN(C)C)cc(-c3ccc(Cl)cc3)nc12 (stereo not drawn) [Compound 47]	100	100	
O=C(CBr)c1cc(-c2ccc(Cl)cc2)nc2cc(Cl)ccc12 [Compound 30]	60	40	
CC(=O)C(=O)c1ccccc1 [Compound 12]			activity at 10 µM ([1]; 48 h): 105%
